# Assay results as given in patent US11033604B2, “Reagents and methods for treating bacterial infection” (priority 2018, dated 2021).
# Non-standard residues stand in square brackets, D forms with d. No end group written: not given here.
# Columns and labels:
# [1] = system: E. coli UTI89 WT biofilms; test: In situ ThT assay of EM amyloid in E. coli UTI89 WT biofilms; type: cell-based
# Description: (§1) FIG. 12. […] Error bars indicate standard deviation of the mean of at least three replicates. Significance values are p<0.05: *, p<0.01: **, p<0.001: ***.
# (§2) Biofilms of the cystitis E. coli isolate UTI89 were cultivated in YESCA broth with 4% DMSO at 26° C., conditions which are known to elicit increased curli biogenesis. Varying doses of the dimeric α-sheet peptide, AP193, were also added to the cultures at the time of inoculation. AP193 is covalently linked through a single cysteine in each of its constituent monomers. Since DMSO was already present in the biofilm growth medium, AP193 stocks were supplemented with 4% DMSO to improve solubility, and the buffer solution was maintained at high pH (sodium carbonate, pH 9.6) to retain oxidation of the disulfide bond. After 48 hours of growth, biofilms were washed, homogenized, and stained with ThT.
# (§3) UTI89 biofilms were also cultivated in the presence of an unstructured peptide, P1, which retains a mixture of L- and D-amino acids but lacks the α-sheet secondary structure of AP193.
# CsgA = CsgA (Escherichia coli, UniProt P28307); details: dimeric AP193, 14:1 molar ratio (CsgA:AP193), 150 h, 25° C.
# Description: A) CsgA aggregation monitored by ThT fluorescence. […] Error bars represent one standard deviation from the mean of three replicates.
# For inhibition assays with CsgA, purified, recombinant CsgA was desalted from a stock solution containing 8 M Gnd HCl into 50 mM potassium phosphate buffer (KPi, pH 6.2) and diluted to a final concentration of 0.2 mg/m L. Samples were aliquoted into 96 well plates and incubated quiescently at 25° C. Plates were removed for periodic measurements in a plate reader, where the fluorescence of Thioflavin T (ThT) was used to monitor protein fibril formation in real time. ThT fluoresces upon binding p-sheet structure and serves as a proxy for amyloid fibril content.
# In some samples, the dimeric α-sheet peptide AP193 was also added to the mixture at a molar ratio of 14:1 (CsgA:AP193). After 150 h incubation, the extent of amyloid formation in the two samples was measured by ThT fluorescence (FIG. 11C).
# E. coli UTI89 = test: Bacterial growth and biofilm versus planktonic proportion; type: cell-based; details: UTI89 biofilm cultures
# From the text: as §1, §3
# GERB 337 = test: ThT assay of EM amyloid in clinical isolate biofilms; type: cell-based, E. coli; details: antibiotic resistant clinical isolate GERB 337
# From the text: (§4) FIG. 12. Synthetic α-sheet peptides inhibit amyloid formation in uropathogenic E. coli biofilms. […] E) AP193 is also effective in reducing the EM amyloid content of two clinical isolate strains, GERB 319 and GERB 337. Error bars indicate standard deviation of the mean of at least three replicates. Significance values are p<0.05: *, p<0.01: **, p<0.001: ***.
# (§5) To extend the applicability of synthetic α-sheet peptides beyond the well-characterized UTI89 system, we obtained several E. coli isolates from pediatric patients who presented with urinary tract infections.
# GERB 319 = test: as above; type: cell-based, E. coli; details: antibiotic resistant clinical isolate GERB 319
# From the text: as §4, §5
# UTI89 ΔcsgA biofilms = test: In situ ThT assay in UTI89 ΔcsgA knockout biofilms; type: cell-based, E. coli; details: UTI89 ΔcsgA knockout strain
# Description: as §1, §2, §3
# csgA expression = test: RT-qPCR of csgA expression in biofilms; type: cell-based, E. coli; details: biofilms grown with peptide vs peptide-free controls
# From the text: as §3
# [2] = system: bacterial biofilm on glass disks; test: Biofilm formation on α-sheet peptide coated glass disk; type: cell-based; details: polydopamine-grafted peptide, FIG. 17 (dimeric AP193)
# From the text: FIG. 17. Bacterial adherence and growth of biofilm on glass disks and decreased adhesion of bacteria (GFP signal) and biofilm and amyloid formation (Brightfield image) when glass is coated with α-sheet peptides, shown for dimeric AP193. This is a model for biofilm formation on implanted devices such as prosthetic joints.
# We have conjugated α-sheet peptides to other functional molecules to enhance their efficacy at the site of biofilm infection, i.e., the surface of biomedical implants. To this end, we used a polydopamine (PDA) coating approach to facilitate attachment of α-sheet peptides to biomedical implant materials. […]
# For α-sheet peptide grafting, 0.5 mg/mL peptide (e.g. AP90, AP193, or P1 as a control) was dissolved in 10 mM Tris pH 8.0 and then applied to PDA-coated substrates for overnight reaction (18 hours). […] First, the concentration of peptide remaining in solution after conjugation was measured by NanoOrange™ assay to determine coupling efficiency and surface density. Second, accessibility of α-sheet peptides on the surface was determined by immunofluorescence; PGPMs were blocked with 5% BSA solution for 12 h, incubated with AlexaFluor®568-conjugated Pac53 antibody (which recognizes α-sheet peptides), and then washed and imaged on a fluorescent microscope to ensure attachment to the disks. […]
# SA = test: Crystal violet biofilm assay; type: cell-based, Staphylococcus aureus
# From the text: (§6) Furthermore, these same inhibitors are active against EC, SE, and SM.
# S. mutans biofilm = test: TEM of S. mutans biofilm; type: cell-based, Streptococcus mutans; details: 100 μM (FIG. 16)
# Description: FIG. 16. Synthetic α-sheet peptides as a novel anti-biofilm agent for the dental pathogen, S. mutans. A) ThT fluorescence of S. mutans biofilms decreases upon addition of synthetic α-sheet peptides AP193, AP407, and AP90. […] D) synthetic α-sheet peptides added to S. mutans grown on hydroxyapatite ceramic particles led to significant decreases in ThT fluorescence.
# The phenotypic effects of synthetic α-sheet peptides were determined using TEM.
# [3] = system: Pseudomonas aeruginosa (PA); test: Crystal violet biofilm assay; type: cell-based
# From the text: as §6
# [4] = system: Streptococcus mutans (SM); test: Crystal violet biofilm assay; type: cell-based
# From the text: as §6
# Escherichia coli (EC) = test: Crystal violet biofilm assay; type: cell-based
# From the text: as §6
# [5] = system: Staphylococcus epidermidis (SE); test: Crystal violet biofilm assay; type: cell-based
# From the text: as §6
# CsgA, sequence (P28307 21-151): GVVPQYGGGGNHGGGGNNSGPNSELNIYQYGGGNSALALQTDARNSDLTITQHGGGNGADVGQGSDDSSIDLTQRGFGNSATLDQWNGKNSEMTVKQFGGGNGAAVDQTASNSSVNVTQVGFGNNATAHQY
Substance,"EM amyloid content of biofilm (ThT fluorescence), varying doses ([1]; YESCA broth + 4% DMSO, 26° C., 48 h)",ThT fluorescence of biofilm at highest dose ([1]; highest dose),CsgA fibril formation (endpoint ThT fluorescence) (CsgA),Bacterial killing / growth inhibition (E. coli UTI89),ThT fluorescence of biofilm (GERB 337),ThT fluorescence of biofilm (GERB 319),ThT fluorescence of biofilm (UTI89 ΔcsgA biofilms),csgA expression (RT-qPCR) (csgA expression),Amount of bacterial biofilm on peptide-coated glass disk [2],"Biofilm inhibition (crystal violet, FIG. 10) (SA)",Fibrillar structures in extracellular material by TEM (S. mutans biofilm),"Biofilm inhibition (crystal violet, FIG. 10) [3]",Activity against biofilm-forming bacteria (crystal violet) [4],Activity against biofilm-forming bacteria (crystal violet) (Escherichia coli (EC)),Activity against biofilm-forming bacteria (crystal violet) [5]
"RGEmNyFwMNEYYGWtMnCkMGR (RGE[dM]N[dY]F[dW]MNEYYGW[dT]M[dN]C[dK]MGR) [AP193, hydrophobic AP90 derivative, variant to support different chemical coupling reactions]",dose-dependent reduction in ThT fluorescence,reduced the ThT fluorescence of WT biofilms to levels near those of the ΔcsgA strain,significantly reduced,does not kill bacteria or inhibit their growth,significant decrease in ThT fluorescence,significant decrease in ThT fluorescence,no significant changes,did not reveal any significant changes in csgA expression,dramatic drop in the amount of bacterial biofilm,,,,,,
"RGEmNlSwMNEYSGWtMnLkMGR (RGEMNLSWMNEYSGWTMNLKMGR; not fully specified (residues 4, 6, 8, 16, 18, 20); printed as RGEmNlSwMNEYSGWtMnLkMGR) [AP90]",,,,,,,,,,inhibition,such structures were not observed,inhibition,active,active,active
